What all share (test): NCI anticancer screen, dose series, 48 h
The test system of assay [1] is MOLT-4 leukemia.
The test system of assay [2] is NCI-H460 lung.
The subject of assay [3] is A549 NSCLC.
The test system of assay [4] is SNB-19 CNS.
Assay [5] concerns SN12C renal.
The subject of assay [6] is UACC-62 melanoma.
The subject of assay [7] is U251 CNS.
For assay [8], the system named is HL-60(TB) leukemia.
Assay [9] deals with HOP-92 NSCLC.
In assay [10] the test system is NCI-H23 lung.

Experimental findings from PubChem BioAssay (NCI) are described below.

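Compound exposure: 48 hours, 5 concentrations, 96-well plates. Abbreviation: GI50, concentration required for 50% inhibition of growth. TGI marks complete inhibition of growth.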

Regarding `COc1ccc2c(c1OC)-c1c(c3ccc([N+](=O)[O-])cc3c(=O)n1CCCBr)C2=O`, the GI50 was 18.9 µM in assay [1]; 6.64 µM in [2]; 42.4 µM in assay [3]; 69.9 µM in assay [4]; 36.2 µM in assay [5]; 18.1 µM in assay [6]. Further, the TGI in assay [1] is 52.7 µM; in assay [2], 68.8 µM; in assay [3] it was more than 100 µM; in assay [4], more than 100 µM; in [5], more than 100 µM; in [6], 76.1 µM.
As for `COC(=O)C1C(=O)CC2CCCCC21` (configuration not stated), the TGI in assay [1], in assay [7], in assay [2], in [3], in assay [4] and in [5] was more than 100 µM each time. In addition, the TGI in assay [6] and in [8] was more than 100 µM throughout.
Consider `CN(C)/C=N\c1ccnc(=O)[nH]1`, for which the TGI in assay [7], in assay [2], in assay [3], in assay [5], in assay [6] and in assay [9] was more than 100 µM throughout. In assay [8], this molecule had a TGI of more than 100 µM.
As for `CCn1c(-c2cc3c([nH]c4ccccc43)c(-c3cccc(O)c3)n2)n[nH]c1=S`, the GI50 is 2.38 µM in assay [1]; 3.18 µM in [7]; 3.04 µM in [2]; 4 µM in assay [3]; 4.28 µM in assay [4]; 4.02 µM in [5]. For the same molecule, the GI50 was 1.95 µM in [6] and 3.11 µM in [10]. Besides, the TGI in assay [1] amounted to 6.77 µM; in [7], 15.1 µM; in [2] it was 10.7 µM; in assay [3], 18.8 µM; in assay [4] it was 16.6 µM; in [5], 22.1 µM. Also, the TGI turned out to be 7.35 µM in assay [6] and 13.2 µM in assay [10].
For the molecule `COc1ccc(OC(C(=O)O)C(C)C)c2c1CCCC2=O` (configuration not stated), the TGI in assay [1], in [7], in [2], in assay [3], in assay [4] and in assay [5] was more than 100 µM throughout. The TGI in assay [6], in assay [10] and in assay [8] was more than 100 µM throughout.
Take `CC(=O)NC(CCCCN)C(=O)NCc1ccccc1` (configuration not stated): the TGI in [1], in assay [7], in [2], in assay [3], in [4] and in assay [5] was more than 100 µM in each case. The TGI in [6], in [9] and in assay [10] was more than 100 µM in each case.
Take `Oc1c(Cl)cc(Cl)c2ccc(Cn3cc(-c4cc(C(F)(F)F)cc(C(F)(F)F)c4)nn3)nc12`: the GI50 in assay [1] is 0.823 µM; in assay [7], 4.52 µM; in [2], 18.2 µM; in assay [3], 15.8 µM; in assay [4] it was 8.28 µM; in [5] it was 3.11 µM. Besides, the GI50 was 2.15 µM in assay [6], 1.45 µM in [9] and 3.05 µM in assay [10]. In addition, the TGI in [1] is 5.91 µM; in [7], 16.8 µM; in assay [2], 35.2 µM; in assay [3], 31.6 µM; in assay [4] it was 21.8 µM; in [5] it was 11.8 µM. The TGI amounted to 6.65 µM in assay [6], 4.03 µM in assay [9] and 9.88 µM in [10].
Regarding `CSc1ncc(Br)c(Sc2nc(N)nc3nc[nH]c23)n1`, the GI50 is 10.3 µM in assay [7]; 2.15 µM in assay [2]; 9.77 µM in assay [3]; 22.3 µM in assay [4]; 3.8 µM in assay [5]; 2.48 µM in assay [6]. The GI50 in assay [9] is 0.456 µM; in assay [10] it was 3.74 µM; in [8] it was 4.34 µM. Further, the TGI was 57 µM in assay [7]; 13.3 µM in assay [2]; 71.1 µM in assay [3]; more than 100 µM in assay [4]; 36.5 µM in assay [5]; 12.2 µM in assay [6]. Also, the TGI in [9] is 5.23 µM; in assay [10], more than 100 µM; in assay [8], 27.3 µM.
For `[O-]c1ccccc1C=Nc1ccc2c(c1)CCC2.[O-]c1ccccc1C=Nc1ccc2c(c1)CCC2.[O]=[U+2]=[O]`, the GI50 in assay [1] is 12.4 µM; in assay [2], 47.3 µM; in assay [3], more than 100 µM; in assay [4], 27.9 µM; in assay [5], more than 100 µM; in [6] it was more than 100 µM. Further, the GI50 in assay [10] was more than 100 µM; in assay [8], 9.43 µM. The TGI in [1], in assay [2], in assay [3], in assay [4], in assay [5] and in [6] was more than 100 µM in each case. The TGI in assay [10] and in assay [8] was more than 100 µM throughout.
On to `CN(C)c1nc(=NCc2ccco2)ss1`, for which the TGI in assay [1] was 44.8 µM; in [7] it was 67.5 µM; in assay [2], more than 100 µM; in [3], more than 76.7 µM; in assay [4], more than 80.4 µM; in [5], 57.2 µM. Moreover, the TGI was more than 70.5 µM in [6], 58 µM in assay [10] and 10.6 µM in [8].
With `COC(=O)CCC12CCC(=O)C1[C@@H](C(=O)OC)C[C@H]2C(=O)OC` (some centres not stated), the TGI in assay [1], in assay [7], in assay [2], in assay [3], in [4] and in [5] was more than 100 µM throughout. Further, the TGI in [6], in assay [10] and in assay [8] was more than 100 µM each time.
Turning to `CCCn1cnc2c(SCC(=O)O)nc(N)nc21`, the TGI in [7], in assay [2], in assay [3], in assay [4], in [5] and in assay [6] was more than 100 µM throughout. Moreover, the TGI in [9], in assay [10] and in assay [8] was more than 100 µM in each case.
With `COC(=O)C12CC(NC(=O)c3csc([C@@H](C[C@H](C(C)C)N(C)C(=O)[C@@H](NC(=O)[C@H]4CCCCN4C)C4CC4)OC(C)=O)n3)(C1)C2`, the GI50 was 0.00745 µM in [1]; 0.0474 µM in [7]; 0.0472 µM in assay [2]; 0.101 µM in [3]; 0.0581 µM in assay [4]; 0.0207 µM in [5]. The GI50 in assay [6] is 0.0153 µM; in assay [10] it was 0.0885 µM; in assay [8] it was 0.00243 µM. Further, the TGI in [1], in [7], in assay [2], in [3], in assay [4] and in assay [5] was more than 16.7 µM in each case. Besides, the TGI in assay [6] is more than 16.7 µM; in assay [10] it was more than 16.7 µM; in assay [8], 0.00876 µM.
As to `C[Si](C)(c1ccc(C(=O)O)cc1)c1ccc(C(=O)O)cc1`, the TGI in assay [1], in assay [7], in [2], in assay [3], in [4] and in assay [5] was more than 100 µM throughout. The TGI in [6], in assay [9] and in assay [10] was more than 100 µM each time.
On to `NCCCCC1NC(=O)C(CC(=O)O)NC(=O)CNC(=O)C(CCCN=C(N)N)NC(=O)C(N)CSSCC(C(=O)O)NC(=O)C(CC(=O)O)NC(=O)C2CCCN2C(=O)CNC1=O` (configuration not stated), for which the GI50 in assay [7], in [2], in [3], in assay [4], in assay [5] and in assay [6] was more than 100 µM each time. Besides, in assay [10], the GI50 was more than 100 µM. For the same molecule, the TGI in assay [7], in [2], in [3], in assay [4], in assay [5] and in [6] was more than 100 µM throughout. In assay [10], this molecule displayed a TGI of more than 100 µM.
For `CCc1ccccc1NC(=O)/C=C/c1ccccc1`, the TGI in [1], in assay [7], in assay [2], in [3], in assay [4] and in assay [5] was more than 100 µM throughout. Further, the TGI in assay [6] and in assay [10] was more than 100 µM throughout.
For the molecule `C#CCNC(=O)ON1C(=O)CCC1=O`, the TGI in assay [1], in [7], in assay [2], in assay [3], in assay [4] and in assay [5] was more than 100 µM throughout. Further, the TGI in assay [6], in [10] and in [8] was more than 100 µM each time.
For the molecule `O=C(Nc1ccc(F)cc1F)c1cc(Cl)ccc1O`, the GI50 is 1.38 µM in assay [7]; 1.42 µM in assay [2]; 1.29 µM in assay [3]; 1.45 µM in [4]; 1.29 µM in [5]; 0.489 µM in assay [6]. Further, the GI50 in assay [9] is 0.232 µM; in [10], 1.6 µM. Besides, the TGI in assay [7] was 16 µM; in assay [2], 19.2 µM; in assay [3] it was 41 µM; in [4], more than 100 µM; in [5] it was 8.1 µM; in [6], 3.03 µM. Moreover, the TGI is 0.942 µM in assay [9] and 8.27 µM in assay [10].
For the molecule `O=[N+]([O-])c1cccc(-c2nc(-c3ccccc3)c(-c3ccccc3)[nH]2)c1`, the TGI in assay [1], in assay [7], in [2], in assay [3], in assay [4] and in [5] was more than 100 µM each time. In addition, the TGI in assay [6], in assay [10] and in assay [8] was more than 100 µM in each case.
For `COC(=O)C1=C(CS(=O)c2ccc([N+](=O)[O-])cc2[N+](=O)[O-])C2C=CC1C2` (configuration not stated), the TGI in [1] was 59.8 µM; in assay [7], 49.4 µM; in assay [2], more than 100 µM; in assay [3] it was more than 100 µM; in assay [4], more than 100 µM; in [5], 50.2 µM. Also, the TGI in assay [6] was 42.2 µM; in [10], 98.9 µM; in assay [8], 37.2 µM.
For the molecule `Cn1cccc1-c1cc(-c2ccccc2)[nH]c(=O)c1C#N`, the GI50 in [1] is 18.9 µM; in assay [7] it was more than 100 µM; in assay [2], more than 100 µM; in [3], more than 100 µM; in assay [4], more than 100 µM; in assay [5] it was more than 100 µM. Besides, the GI50 in [6] was 95 µM; in [10], more than 100 µM. The TGI in assay [1] is 45.4 µM; in [7], more than 100 µM; in [2], more than 100 µM; in assay [3], more than 100 µM; in assay [4], more than 100 µM; in [5], more than 100 µM. Further, the TGI in assay [6] was more than 100 µM; in assay [9], 0.0283 µM; in [10], more than 100 µM.
`CCCCCN(CCCCC)CC(O)c1cc(Cl)ccc1OC` (configuration not stated): the GI50 was 6.94 µM in assay [1]; 10.7 µM in assay [7]; 4.7 µM in assay [2]; 6.61 µM in assay [3]; 14.6 µM in assay [4]; 10.5 µM in [5]. Moreover, the GI50 in assay [6] is 11.1 µM; in assay [10], 5.79 µM; in assay [8], 5.05 µM. The TGI in assay [1] was 28.7 µM; in [7] it was 25.5 µM; in [2], 18 µM; in assay [3], 24.7 µM; in [4], 50.1 µM; in assay [5], 28.8 µM. Further, the TGI in [6] amounted to 25.4 µM; in assay [10], 20.9 µM; in assay [8] it was 25.9 µM.
